Biological target: T1, STAT3 (Homo sapiens, UniProt P40763)
T1 construct: expressed in transfected cells; host or cells: A549
Test: STAT3 HiBiT degradation assay in transfected A549 cells
Format: cell-based
Details: 24 h compound incubation, Nano-Glo HiBiT lytic detection, read-out: Cell: STAT3 HiBit A549 degradation 24 h GMean External Abs-DC50
Procedure: Compound preparation and Cell seeding: The transfected A549 cells were harvested from dish into cell culture medium and cell numbers counted. Cells were diluted with culture medium to the desired density and 30 μL of cell suspension (about 2000 cells/well) were added into each well of a 384-well cell culture plate as designated and transferred into 37° C. 5% CO2 incubator for 24 h. Compounds were dissolved to 10 mM stock solution and 12 μL of the stock solution was transferred to a 384 LDV-plate. 3 fold, 10-point dilution was performed by transferring 4 μL compound into 8 μL DMSO using a TECAN (EVO200) liquid handler. 30 μL of diluted compound from compound source plate was transferred into the cell plate as designated by using Echo550 and transferred into 37° C. 5% CO2 incubator for 24 h.
Detection: Plates were removed from incubators and equilibrated at room temperature for 15 minutes. Nano-Glo Hibit Lytic Detection reagent (Promega Cat #N3040) was thawed and equilibrated to room temperature before the experiment. 30 μL of Nano-Glo Hibit Lytic Detection reagent was added into each well to be detected. The plates were held at room temperature for 10 min followed by reading on EnSpire.
Data analysis: The remaining activity was calculated following the formula: Remaining Activity (%)=100%×(Lumsample−LumNC)/(LumPC−LumNC). Calculate the IC50 by fitting the curve using Xlfit (v5.3.1.3), equation 201: fit=(A+((B−A)/(1+((x/C)^D)))); A: Botton; B: Top; C: IC50; and D: Slope.
The letter codes for STAT3 DC50 include: A (<0.05 μM), B (0.05-0.2 μM), C (0.2-1.0 μM), and D (>1.0 μM).

T1 sequence (P40763 whole entry): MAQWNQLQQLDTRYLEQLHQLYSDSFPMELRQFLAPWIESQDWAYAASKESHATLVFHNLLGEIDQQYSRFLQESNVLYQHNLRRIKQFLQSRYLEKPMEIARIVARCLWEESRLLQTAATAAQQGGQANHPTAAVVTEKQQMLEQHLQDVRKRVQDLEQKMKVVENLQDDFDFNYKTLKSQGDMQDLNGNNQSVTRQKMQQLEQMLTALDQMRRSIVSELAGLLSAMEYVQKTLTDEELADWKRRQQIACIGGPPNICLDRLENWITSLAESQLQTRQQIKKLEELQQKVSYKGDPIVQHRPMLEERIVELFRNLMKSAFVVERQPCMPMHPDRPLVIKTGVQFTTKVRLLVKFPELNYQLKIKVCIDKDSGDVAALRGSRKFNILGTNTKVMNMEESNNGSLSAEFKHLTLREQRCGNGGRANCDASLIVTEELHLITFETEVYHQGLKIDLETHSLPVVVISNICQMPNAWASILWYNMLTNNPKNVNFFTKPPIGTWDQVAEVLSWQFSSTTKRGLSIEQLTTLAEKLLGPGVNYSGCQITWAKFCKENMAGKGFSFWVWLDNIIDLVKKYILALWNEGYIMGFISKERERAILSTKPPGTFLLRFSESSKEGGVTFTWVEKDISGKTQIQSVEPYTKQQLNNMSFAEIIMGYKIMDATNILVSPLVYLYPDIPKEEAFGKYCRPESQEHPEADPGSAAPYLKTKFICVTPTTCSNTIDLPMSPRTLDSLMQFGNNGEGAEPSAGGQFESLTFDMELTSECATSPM

With `COC(=O)N1CC[C@H]2CC[C@@H](C(=O)N[C@@H](CCC(N)=O)C(=O)N[C@@H](Cc3ccc(F)c(F)c3)C(=O)N3CCC(CCC#Cc4ccc5c(c4)n(C)c(=O)n5C4CCC(=O)NC4=O)CC3)N2C(=O)[C@@H](NC(=O)c2cc3cc(C(F)(F)P(=O)(O)O)ccc3s2)C1` (stereo partly shown) [Compound I-1] the DC50 was < 50 nM.
With `COC(=O)N1CC[C@H]2CC[C@@H](C(=O)N[C@@H](CCC(N)=O)C(=O)N[C@@H](Cc3ccc(F)c(F)c3)C(=O)N3CCC(CCCc4ccc5c(c4)n(C)c(=O)n5C4CCC(=O)NC4=O)CC3)N2C(=O)[C@@H](NC(=O)c2cc3cc(C(F)(F)P(=O)(O)O)ccc3s2)C1` (stereo partly drawn) [Compound I-2, (2-{[(5S,8S,10aR)-8-{[(1S)-3-carbamoyl-1-{[(2S)-3-(3,4-difluorophenyl)-1-(4-{3-[1-(2,6-dioxopiperidin-3-yl)-3-methyl-2-oxo-1,3-benzodiazol-5-yl]propyl}piperidin-1-yl)-1-oxopropan-2-yl]carbamoyl}propyl]carbamoyl}-3-(methoxycarbonyl)-6-oxo-octahydropyrrolo[1,2-a][1,5]diazocin-5-yl]carbamoyl}-1-benzothiophen-5-yl)difluoromethylphosphonic acid] the DC50 was < 50 nM.
In the case of `COC(=O)N1CC[C@H]2CC[C@@H](C(=O)N[C@@H](CCC(N)=O)C(=O)N[C@@H](Cc3ccc(F)c(F)c3)C(=O)N3CCC(CCCc4cccc5c4n(C)c(=O)n5C4CCC(=O)NC4=O)CC3)N2C(=O)[C@@H](NC(=O)c2cc3cc(C(F)(F)P(=O)(O)O)ccc3s2)C1` (stereo partly shown) [Compound I-3], the DC50 was < 50 nM.
Molecule `COC(=O)N1CC[C@H]2CC[C@@H](C(=O)N[C@@H](CCC(N)=O)C(=O)N[C@@H](Cc3ccc(F)c(F)c3)C(=O)N3CCC(CCC#Cc4ccc5c(c4)n(C)c(=O)n5C4CCC(=O)NC4=O)CC3)N2C(=O)[C@@H](NC(=O)c2cc3cc(C(=O)P(=O)(O)O)ccc3[nH]2)C1` (stereo partly shown) [Compound I-4] has a DC50 of 200 to 1000 nM.
In the case of `COC(=O)N1CC[C@H]2CC[C@@H](C(=O)N[C@@H](CCC(N)=O)C(=O)N[C@@H](Cc3ccc(F)c(F)c3)C(=O)N3CCC(CCCc4ccc5c(c4)n(C)c(=O)n5C4CCC(=O)NC4=O)CC3)N2C(=O)[C@@H](NC(=O)c2cc3cc(C(=O)P(=O)(O)O)ccc3[nH]2)C1` (stereo partly drawn) [Compound I-5, 2-[[(5S,8S,10aR)-8-[[(1S)-3-carbamoyl-1-[[(2S)-3-(3,4-difluorophenyl)-1-(4-[3-[1-(2,6-dioxopiperidin-3-yl)-3-methyl-2-oxo-1,3-benzodiazol-5-yl]propyl]piperidin-1-yl)-1-oxopropan-2-yl]carbamoyl]propyl]carbamoyl]-3-(methoxycarbonyl)-6-oxo-octahydropyrrolo[1,2-a][1,5]diazocin-5-yl]carbamoyl]-1H-indole-5-carbonylphosphonic acid], the DC50 was 50 to 200 nM.
`COC(=O)N1CC[C@H]2CC[C@@H](C(=O)N[C@@H](CCC(N)=O)C(=O)N[C@@H](Cc3ccc(F)c(F)c3)C(=O)N3CCC(CCCc4cccc5c4n(C)c(=O)n5C4CCC(=O)NC4=O)CC3)N2C(=O)[C@@H](NC(=O)c2cc3cc(C(=O)P(=O)(O)O)ccc3[nH]2)C1` (stereo partly shown) [Compound I-6] was tested, and the DC50 was 200 to 1000 nM.
`CC(=O)N1CC[C@H]2CC[C@@H](C(=O)N[C@@H](CCC(N)=O)C(=O)N[C@@H](Cc3ccc(F)c(F)c3)C(=O)N3CCC(CCC#Cc4ccc5c(c4)n(C)c(=O)n5C4CCC(=O)NC4=O)CC3)N2C(=O)[C@@H](NC(=O)c2cc3cc(C(=O)P(=O)(O)O)ccc3[nH]2)C1` (stereo partly shown) [Compound I-7] was tested, and the DC50 was 200 to 1000 nM.
For `CC(=O)N1CC[C@H]2CC[C@@H](C(=O)N[C@@H](CCC(N)=O)C(=O)N[C@@H](Cc3ccc(F)c(F)c3)C(=O)N3CCC(CCCc4ccc5c(c4)n(C)c(=O)n5C4CCC(=O)NC4=O)CC3)N2C(=O)[C@@H](NC(=O)c2cc3cc(C(=O)P(=O)(O)O)ccc3[nH]2)C1` (stereo partly shown) [Compound I-8], the DC50 was > 1000 nM.
For `CC(=O)N1CC[C@H]2CC[C@@H](C(=O)N[C@@H](CCC(N)=O)C(=O)N[C@@H](Cc3ccc(F)c(F)c3)C(=O)N3CCC(CCCc4cccc5c4n(C)c(=O)n5C4CCC(=O)NC4=O)CC3)N2C(=O)[C@@H](NC(=O)c2cc3cc(C(=O)P(=O)(O)O)ccc3[nH]2)C1` (stereo partly shown) [Compound I-9], the DC50 was 200 to 1000 nM.
`CC(=O)N1CC[C@H]2CC[C@@H](C(=O)N[C@@H](CCC(N)=O)C(=O)N[C@@H](Cc3ccc(F)c(F)c3)C(=O)N3CCC(CCC#Cc4ccc5c(c4)n(C)c(=O)n5C4CCC(=O)NC4=O)CC3)N2C(=O)[C@@H](NC(=O)c2cc3cc(C(F)(F)P(=O)(O)O)ccc3s2)C1` (stereo partly shown) [Compound I-10] showed a DC50 of 50 to 200 nM.
With `Cn1c(=O)n(C2CCC(=O)NC2=O)c2ccc(CCCC3CCN(C(=O)[C@H](Cc4ccc(F)c(F)c4)NC(=O)[C@H](CCC(N)=O)NC(=O)[C@@H]4CC[C@@H]5CCCC[C@H](NC(=O)c6cc7cc(C(F)(F)P(=O)(O)O)ccc7s6)C(=O)N54)CC3)cc21` (stereo partly shown) [Compound I-11] the DC50 was 50 to 200 nM.
For `Cn1c(=O)n(C2CCC(=O)NC2=O)c2ccc(CCCC3CCN(C(=O)[C@H](Cc4ccc(F)c(F)c4)NC(=O)[C@H](CCC(N)=O)NC(=O)[C@@H]4CC[C@@H]5CCCC[C@H](NC(=O)c6cc7cc(C(=O)P(=O)(O)O)ccc7[nH]6)C(=O)N54)CC3)cc21` (stereo partly shown) [Compound I-12], the DC50 was 200 to 1000 nM.
For `Cn1c(=O)n(C2CCC(=O)NC2=O)c2cccc(CCCC3CCN(C(=O)[C@H](Cc4ccc(F)c(F)c4)NC(=O)[C@H](CCC(N)=O)NC(=O)N4Cc5cccc6c5C4C(=O)[C@@H](NC(=O)c4cc5cc(C(=O)P(=O)(O)O)ccc5[nH]4)CC6)CC3)c21` (stereo partly shown) [Compound I-13], the DC50 was 200 to 1000 nM.
With `Cn1c(=O)n(C2CCC(=O)NC2=O)c2cccc(CCCC3CCN(C(=O)[C@H](Cc4ccc(F)c(F)c4)NC(=O)[C@H](CCC(N)=O)NC(=O)N4Cc5cccc6c5C4C(=O)[C@@H](NC(=O)c4cc5cc(C(F)(F)P(=O)(O)O)ccc5s4)CC6)CC3)c21` (stereo partly shown) [Compound I-14] the DC50 was > 1000 nM.
Work on `COC(=O)N1CC[C@H]2CC[C@@H](C(=O)N[C@@H](CCC(N)=O)C(=O)N[C@H](C(=O)N3CCC(CCCc4ccc5c(c4)n(C)c(=O)n5C4CCC(=O)NC4=O)CC3)C3CCCCC3)N2C(=O)[C@@H](NC(=O)c2cc3cc(C(F)(F)P(=O)(O)O)ccc3s2)C1` (stereo partly shown) [Compound I-15] yielded a DC50 of 200 to 1000 nM.
Molecule `COC(=O)N1CC[C@H]2CC[C@@H](C(=O)N[C@@H](CCC(N)=O)C(=O)N[C@H](C(=O)N3CCC(CCC#Cc4cccc5c4n(C)c(=O)n5C4CCC(=O)NC4=O)CC3)C3CCCCC3)N2C(=O)[C@@H](NC(=O)c2cc3cc(C(F)(F)P(=O)(O)O)ccc3s2)C1` (stereo partly shown) [Compound I-16] has a DC50 of 200 to 1000 nM.
In the case of `COC(=O)N1CC[C@H]2CC[C@@H](C(=O)N[C@@H](CCC(N)=O)C(=O)N[C@H](C(=O)N3CCC(CCCCc4cccc5c4n(C)c(=O)n5C4CCC(=O)NC4=O)CC3)C3CCCCC3)N2C(=O)[C@@H](NC(=O)c2cc3cc(C(F)(F)P(=O)(O)O)ccc3s2)C1` (stereo partly shown) [Compound I-17], the DC50 was 200 to 1000 nM.
`COC(=O)N1CC[C@H]2CC[C@@H](C(=O)N[C@@H](CCC(N)=O)C(=O)N[C@H](C(=O)N3CCC(CCCc4ccc5c(c4)n(C)c(=O)n5C4CCC(=O)NC4=O)CC3)C3CCCCC3)N2C(=O)[C@@H](NC(=O)c2cc3cc(C(=O)P(=O)(O)O)ccc3[nH]2)C1` (stereo partly shown) [Compound I-18] gave a DC50 of 200 to 1000 nM.
`COC(=O)N1CC[C@H]2CC[C@@H](C(=O)N[C@@H](CCC(N)=O)C(=O)N[C@H](C(=O)N3CCC(CCC#Cc4cccc5c4n(C)c(=O)n5C4CCC(=O)NC4=O)CC3)C3CCCCC3)N2C(=O)[C@@H](NC(=O)c2cc3cc(C(=O)P(=O)(O)O)ccc3[nH]2)C1` (stereo partly shown) [Compound I-19] gave a DC50 of 200 to 1000 nM.
For `COC(=O)N1CC[C@H]2CC[C@@H](C(=O)N[C@@H](CCC(N)=O)C(=O)N[C@H](C(=O)N3CCC(CCCCc4cccc5c4n(C)c(=O)n5C4CCC(=O)NC4=O)CC3)C3CCCCC3)N2C(=O)[C@@H](NC(=O)c2cc3cc(C(=O)P(=O)(O)O)ccc3[nH]2)C1` (stereo partly shown) [Compound I-20], the DC50 was 200 to 1000 nM.
`CC(=O)N1CC[C@H]2CC[C@@H](C(=O)N[C@@H](CCC(N)=O)C(=O)N[C@H](C(=O)N3CCC(CCCCc4cccc5c4n(C)c(=O)n5C4CCC(=O)NC4=O)CC3)C3CCCCC3)N2C(=O)[C@@H](NC(=O)c2cc3cc(C(=O)P(=O)(O)O)ccc3[nH]2)C1` (stereo partly shown) [Compound I-27] was tested, and the DC50 was > 1000 nM.
In the case of `CC(=O)N1CC[C@H]2CC[C@@H](C(=O)N[C@@H](CCC(N)=O)C(=O)N[C@H](C(=O)N3CCC(CCC#Cc4cccc5c4n(C)c(=O)n5C4CCC(=O)NC4=O)CC3)C3CCCCC3)N2C(=O)[C@@H](NC(=O)c2cc3cc(C(=O)P(=O)(O)O)ccc3[nH]2)C1` (stereo partly shown) [Compound I-29], the DC50 was > 1000 nM.
With `CC(=O)N1CC[C@H]2CC[C@@H](C(=O)N[C@@H](CCC(N)=O)C(=O)N[C@H](C(=O)N3CCC(CCCc4ccc5c(c4)n(C)c(=O)n5C4CCC(=O)NC4=O)CC3)C3CCCCC3)N2C(=O)[C@@H](NC(=O)c2cc3cc(C(=O)P(=O)(O)O)ccc3s2)C1` (stereo partly shown) [Compound I-30] the DC50 was > 1000 nM.
`CC(=O)N1CC[C@H]2CC[C@@H](C(=O)N[C@@H](CCC(N)=O)C(=O)N[C@H](C(=O)N3CCC(CCC#Cc4cccc5c4n(C)c(=O)n5C4CCC(=O)NC4=O)CC3)C3CCCCC3)N2C(=O)[C@@H](NC(=O)c2cc3cc(C(=O)P(=O)(O)O)ccc3s2)C1` (stereo partly shown) [Compound I-31] gave a DC50 of 50 to 200 nM.
`CC(=O)N1CC[C@H]2CC[C@@H](C(=O)N[C@@H](CCC(N)=O)C(=O)N[C@H](C(=O)N3CCC(CCCCc4cccc5c4n(C)c(=O)n5C4CCC(=O)NC4=O)CC3)C3CCCCC3)N2C(=O)[C@@H](NC(=O)c2cc3cc(C(=O)P(=O)(O)O)ccc3s2)C1` (stereo partly shown) [Compound I-32] showed a DC50 of 200 to 1000 nM.
